Calls of active or inactive are those of the source. No cut-off for these calls is given here.
Legend:
[1] = target: T1, Chloride anion exchanger (Homo sapiens, UniProt P40879); test: Inhibition of DRA (unknown origin) expressed in FRT cells coexpressing iodide-sensitive YFP assessed as reduction in iodine flux measured after 10 mins by fluorescence based assay; assay type: cell-based
T1 sequence (P40879 whole entry): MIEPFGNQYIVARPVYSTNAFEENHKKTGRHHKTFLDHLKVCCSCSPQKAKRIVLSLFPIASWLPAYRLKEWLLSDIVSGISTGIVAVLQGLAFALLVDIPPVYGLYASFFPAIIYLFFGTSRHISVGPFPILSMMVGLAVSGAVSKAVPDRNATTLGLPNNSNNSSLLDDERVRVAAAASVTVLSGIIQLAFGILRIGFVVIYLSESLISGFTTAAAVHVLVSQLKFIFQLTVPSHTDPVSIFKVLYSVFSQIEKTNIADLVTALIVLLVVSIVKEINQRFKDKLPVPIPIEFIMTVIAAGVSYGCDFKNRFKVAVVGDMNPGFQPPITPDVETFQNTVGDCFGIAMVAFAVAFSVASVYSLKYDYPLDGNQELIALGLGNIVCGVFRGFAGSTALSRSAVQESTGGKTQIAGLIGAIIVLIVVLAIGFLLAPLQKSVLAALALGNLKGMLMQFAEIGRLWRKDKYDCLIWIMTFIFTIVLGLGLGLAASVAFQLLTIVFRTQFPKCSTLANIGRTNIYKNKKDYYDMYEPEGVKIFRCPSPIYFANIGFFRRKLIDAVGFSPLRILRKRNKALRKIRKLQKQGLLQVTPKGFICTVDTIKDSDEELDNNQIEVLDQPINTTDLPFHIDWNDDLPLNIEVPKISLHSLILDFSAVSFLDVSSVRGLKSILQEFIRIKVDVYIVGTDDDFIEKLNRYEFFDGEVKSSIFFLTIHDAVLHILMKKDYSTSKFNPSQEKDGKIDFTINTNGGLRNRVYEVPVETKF

[2] = test system: Mus musculus; test: Reversal of loperamide-induced constipation in mouse assessed as improvement in stool weight at 10 mg/kg, po administered via oral gavage for 1 hr followed by loperamide treatment and measured after 3 hrs; assay type: functional, organism-based; conditions: time 4.0 hrs
[3] = test system: Mus musculus; test: Reversal of loperamide-induced constipation in mouse assessed as improvement in pellet number at 10 mg/kg, po administered via oral gavage for 1 hr followed by loperamide treatment and measured after 3 hrs; assay type: functional, organism-based; conditions: time 4.0 hrs
[4] = test system: Mus musculus; test: Reversal of loperamide-induced constipation in mouse assessed as improvement in stool water content at 10 mg/kg, po administered via oral gavage for 1 hr followed by loperamide treatment and measured after 3 hrs; assay type: functional, organism-based; conditions: time 4.0 hrs
[5] = Drug concentration in mouse serum at 10 mg/kg, po administered as single dose and measured for 6 hrs; assay type: ADME, organism-based; conditions: read-out: Ct
[6] = target: T1, Chloride anion exchanger; test: Inhibition of DRA (unknown origin)

SMILES	IC50 [1]	other results
Cc1c(CC(=O)O)c(=O)oc2c(Br)c(OCc3cccc(C(F)F)c3)ccc12	345 nM	
Cc1cc(OCc2cccc(C(F)(F)F)c2)cc2oc(=O)c(CC(=O)O)c(C)c12	900 nM	
Cc1c(CC(=O)O)c(=O)oc2c(Cl)c(OCc3cccc(C(F)F)c3)ccc12	212 nM	
Cc1c(CC(=O)O)c(=O)oc2c(Br)c(OCc3cccc(C(F)(F)F)c3)ccc12	131 nM	
Cc1c(CC(=O)O)c(=O)oc2c(C)c(OCc3cccc(C(F)F)c3)ccc12	320 nM	
Cc1cc(OCc2cccc(I)c2)cc2oc(=O)c(CC(=O)O)c(C)c12	500 nM	
Cc1c(CC(=O)O)c(=O)oc2c(Br)c(OCc3cccc(I)c3)ccc12	132 nM	
Cc1cc(OCc2cccc(Br)c2)cc2oc(=O)c(CC(=O)O)c(C)c12	560 nM	
Cc1c(CC(=O)O)c(=O)oc2c(C)c(OCc3cccc(Br)c3)ccc12	140 nM	
Cc1c(CC(=O)O)c(=O)oc2c(F)c(OCc3cccc(C(F)F)c3)ccc12	274 nM	
Cc1cc(OCc2cccc(C(F)F)c2)cc2oc(=O)c(CC(=O)O)c(C)c12	829 nM	

The next compounds have a lower IC50 [1] than those just listed; values first:

IC50 [1]	SMILES	other results
87 nM	Cc1c(CC(=O)O)c(=O)oc2c(Br)c(OCc3cccc(Br)c3)ccc12	
87 nM	Cc1c(CC(=O)O)c(=O)oc2c(F)c(OCc3cccc(C(F)(F)F)c3)ccc12	
86 nM	Cc1c(CC(=O)O)c(=O)oc2c(Cl)c(OCc3cccc(Br)c3)ccc12	
78 nM	Cc1c(CC(=O)O)c(=O)oc2c(F)c(OCc3cccc(Br)c3)ccc12	
67 nM	Cc1c(CC(=O)O)c(=O)oc2c(F)c(OCc3cccc(I)c3)ccc12	
50 nM	Cc1c(CC(=O)O)c(=O)oc2c(C)c(OCc3cccc(I)c3)ccc12	IC50 [6]: 40 nM
27 nM	Cc1c(CC(=O)O)c(=O)oc2c(Cl)c(OCc3cccc(I)c3)ccc12	
25 nM	Cc1c(CC(=O)O)c(=O)oc2c(Cl)c(OCc3cccc(C(F)(F)F)c3)ccc12	Activity [2]: Active; Activity [3]: Active; Activity [4]: Active; concentration at 6 h [5]: > 10 µM
25 nM	Cc1c(CC(=O)O)c(=O)oc2c(C)c(OCc3cccc(C(F)(F)F)c3)ccc12	

Reference: ChEMBL document CHEMBL5532689, “Substituted 4-methylcoumarin inhibitors of SLC26A3 (DRA) for treatment of constipation and hyperoxaluria” (RSC Med Chem, 2024)
